US9968577B2, “Treatment and prevention of bone loss using resolvins” (Forsyth Dental Infirmary for Children, priority 2005, dated 2018)

System: P. gingivalis-induced periodontitis
Test: Ligature + P. gingivalis experimental periodontitis, topical application of Resolvin E1
Format: in vivo, New Zealand White rabbits
[1] = rabbit, topical, every other day for 6 weeks, compared with baseline

CC[C@@H](O)/C=C/C=C\C[C@@H](O)/C=C/C=C/C=C\[C@@H](O)CCCC(=O)O [Resolvin E1]
bone loss (rabbit model, topical administration): prevents bone loss | soft tissue condition (mandibles, FIG. 2) (rabbit, topical resolvin E1 7 μg/μL in ethanol every other day for 6 weeks, starting six weeks after ligature and P. gingivalis, vs control group): distinctly healthier than the control group | deposition of bone (bone growth), conclusion (rabbit, topical, every other day for 6 weeks): assisted in deposition of bone | hard tissue crestal distance measurements (FIG. 4 and FIG. 5) (rabbit, topical, every other day for 6 weeks, buccal and lingual, defleshed jaws): same results | soft tissue pocket depth measurements (FIG. 3) (rabbit, topical, every other day for 6 weeks, buccal and lingual, vs vehicle alone): lower | hard-tissue-infrabony pocket depth measurements (FIG. 6) [1]: improvement over baseline | soft tissue pocket depth measurements vs baseline (FIG. 3) [1]: improvement over baseline | tooth mobility (FIG. 7) [1]: improvement over baseline
